Tests used:
IRP1 [1] = molecular target: T1, IRP1 (Mus musculus, UniProt P28271); experiment: Gel-shift of IRP1 in wild type and IRP2−/− mouse embryonic fibroblasts after Tempo1 or DFO and washout; format: cell-based; parameters: Embryonic fibroblasts of 13-day old embryos were isolated from wild type, IRP1−/− mice and IRP2−/− mice; endogenous in cells; host or cells: mouse embryonic fibroblasts (wild type and IRP2−/−); details: wild type and IRP2−/− mouse embryonic fibroblasts treated 16 hours
T1 sequence (P28271 1-889): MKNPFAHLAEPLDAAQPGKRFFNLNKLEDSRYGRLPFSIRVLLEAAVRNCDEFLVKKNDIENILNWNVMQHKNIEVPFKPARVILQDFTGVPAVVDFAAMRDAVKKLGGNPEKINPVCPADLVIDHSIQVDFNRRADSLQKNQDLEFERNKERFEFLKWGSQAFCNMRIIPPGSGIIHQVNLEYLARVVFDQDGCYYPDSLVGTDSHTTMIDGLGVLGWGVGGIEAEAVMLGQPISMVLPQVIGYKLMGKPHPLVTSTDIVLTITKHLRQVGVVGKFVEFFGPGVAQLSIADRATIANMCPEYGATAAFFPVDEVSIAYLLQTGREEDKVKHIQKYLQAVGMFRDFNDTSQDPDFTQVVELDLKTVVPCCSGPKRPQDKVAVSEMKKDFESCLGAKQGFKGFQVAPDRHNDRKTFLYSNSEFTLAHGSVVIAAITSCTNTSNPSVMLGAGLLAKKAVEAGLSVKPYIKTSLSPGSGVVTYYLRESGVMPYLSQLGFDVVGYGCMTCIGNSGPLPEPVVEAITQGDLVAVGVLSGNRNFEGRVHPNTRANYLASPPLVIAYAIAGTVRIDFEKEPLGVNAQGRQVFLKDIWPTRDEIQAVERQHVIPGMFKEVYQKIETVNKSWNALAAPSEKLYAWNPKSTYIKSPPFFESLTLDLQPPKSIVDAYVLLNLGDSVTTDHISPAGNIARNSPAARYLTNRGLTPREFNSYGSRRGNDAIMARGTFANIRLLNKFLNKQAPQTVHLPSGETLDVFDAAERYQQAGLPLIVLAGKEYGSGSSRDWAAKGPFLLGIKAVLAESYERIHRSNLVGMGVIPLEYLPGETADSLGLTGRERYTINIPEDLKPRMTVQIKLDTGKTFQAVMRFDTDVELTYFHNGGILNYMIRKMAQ
Protocol: (§1) Cells: Embryonic fibroblasts of 13-day old embryos were isolated from wild type, IRP1−/− mice and IRP2−/− mice as described in LaVaute et al. supra. Myc-tagged HEK 293 Tet-on cell line, in which IRP2 expression was inducible, was prepared and cultured as described Bourdon et al., Blood Cells Mol Dis, 31, 247-255 (2003). Erythroblasts were harvested from bone marrow and purified as described in Cooperman et al., Blood, 106, 1084-1091 (2005).
(§2) RNA mobility shift assays: Gel retardation assays were performed as described in Meyron-Holtz et al., EMBO J, 23, 386-395 (2004). Tissue lysates were prepared in an anaerobic chamber as described above in oxygen-depleted lysis buffer containing 10 mM HEPES (pH 7.2), 3 mM MgC12, 40 mM KCl, 5% glycerol, 0.2% Nonidet P-40, 5 mM DTT, 1 mM AEBSF, 10 μg/ml. Leupeptin and complete TM EDTA free protease inhibitor cocktail (Roche Applied Science, Indiana). Lysate (x μl) containing 10 μg of total protein was added to (12.5−x) μl of bandshift buffer containing 25 mM Tris-HCl (pH 7.5) and 40 mM KCl. The samples were incubated for 5 min at room temperature (RT) with 12.5 μl of a reaction cocktail containing 20% glycerol, 0.2 U/μl Super RNAsine (Ambion, Tex.), 0.6 μg/μl yeast t-RNA, 5 mM DTT and 20 nM 32P-labelled IRE from human ferritin H-chain gene in 25 mM Tris-HCl (pH 7.5) and 40 mM KCl. A measure of 20 μl of this reaction mixture was loaded into a 10% acrylamide/TBE gel, which was run at 200 V for 2.15 h, and then the gel was fixed, dried and exposed for autoradiography.
(§3) To determine whether the effect of Tempo1 on IRP1 activity was kinetically consistent with oxidative disassembly of the iron sulfur cluster, the effect of Tempo1 on aconitase activity was compared to that of the iron chelator, deferiprone (DFO), which activates IRE-binding activity of IRP1 by limiting de novo synthesis and repair of the iron sulfur cluster in IRP1. […] Recovery of aconitase activity was assessed in wild type and IRP2−/− cells.

cytosolic aconitase = molecular target: T2, cytosolic aconitase (Mus musculus, UniProt P28271); experiment: In-gel aconitase assay in mouse embryonic fibroblast lysates, cytosolic aconitase; format: cell-based; details: assessed 8 hours after removal; mouse embryonic fibroblasts treated 16 hours
T2 construct: Embryonic fibroblasts of 13-day old embryos were isolated from wild type, IRP1−/− mice and IRP2−/− mice; endogenous in cells; host or cells: mouse embryonic fibroblasts (wild type and IRP2−/−)
T2 sequence (P28271 1-889): T1 sequence (P28271 1-889)
Protocol: as §1
Aconitase assay: Aconitase activity gels for human lysates were performed as described in Tong et al., infra, and aconitase activity gels for mouse lysate were performed with the following modifications. The gel was composed of a separating gel containing 6% acrylamide, 132 mM Tris base, 66 mM borate, 3.6 mM citrate, and a stacking gel containing 4% acrylamide, 66 mM Tris base, 33 mM borate, 3.6 mM citrate. The running buffer contains 25 mM Tris pH 8.3, 96 mM glycine, and 3.6 mM citrate. Electrophoresis were carried out at 170 V at 4° C. Spectral aconitase activity was measured by following the method of Fillebeen et al., infra, using cis-aconitate as the substrate.
To confirm that nitroxide radicals activate IRP1 binding by disassembly of the iron-sulfur cluster, we performed in-gel aconitase assays to determine whether Tempo1 decreased the activity of cytosolic aconitase. […] The band that represented the cytosolic aconitase was readily identified by its absence in lysates from IRP1−/− cells. […]
as §3

IRP1 [2] = molecular target: T1, IRP1; experiment: Gel-shift of brain lysates treated with β-mercaptoethanol; format: biochemical, mice; parameters: Lysates made from various brain regions of IRP2−/− mice; from tissue; host or cells: mouse brain (cerebellum, forebrain, brain-stem) lysates; details: FIG. 7a
Protocol: Tissue and lysate preparation: Animals were euthanized and tissues were frozen in liquid nitrogen immediately after harvesting, and stored at −80° C. under argon. Experiments were performed on tissues that were pulverized in liquid N2-cooled mortars in an anaerobic chamber, and then lysed in lysis buffer that was deaerated by cyclic freezethaw and air-removal with argon. Nuclei and debris were removed by centrifugation. Preparations of lysates for assays of IRP1 activity, western blotting, carbonyl assay and protein analysis were performed anaerobically.
RNA mobility shift assays: Gel retardation assays were performed as described in Meyron-Holtz et al., EMBO J, 23, 386-395 (2004). Tissue lysates were prepared in an anaerobic chamber as described above in oxygen-depleted lysis buffer containing 10 mM HEPES (pH 7.2), 3 mM MgC12, 40 mM KCl, 5% glycerol, 0.2% Nonidet P-40, 5 mM DTT, 1 mM AEBSF, 10 μg/ml. Leupeptin and complete TM EDTA free protease inhibitor cocktail (Roche Applied Science, Indiana). Lysate (x μl) containing 10 μg of total protein was added to (12.5−x) μl of bandshift buffer containing 25 mM Tris-HCl (pH 7.5) and 40 mM KCl. […]

IRP1 [3] = molecular target: T1, IRP1; experiment: Gel-shift of erythroblasts treated with β-mercaptoethanol; format: biochemical; parameters: Lysates made from various brain regions of IRP2−/− mice; from tissue; host or cells: mouse brain (cerebellum, forebrain, brain-stem) lysates; details: erythroblasts from wild type mice, high concentrations
Protocol: as §1
as §2, with “A measure of 20 μl of this reaction mixture was loaded into a 10% acrylamide/TBE gel, which was run at 200 V for 2.15 h, and then the gel was fixed, dried and exposed for autoradiography.” left out

`Cc1c(O)c(=O)ccn1C` [DFO, deferiprone, reference compound] was tested, and the “IRE-binding activity of IRP1” value (IRP1 [1]) was “activated” and the “recovery of cytosolic aconitase activity” value (cytosolic aconitase) was “little recovery”.
For `OCCS` [β-mercaptoethanol], the “IRE binding activity recruited” value (IRP1 [2]) was “significant increases” and the “additional IRE binding activity of IRP1” value (IRP1 [3]) was “did not activate additional”.

— patent US20100179188A1, “NITROXIDE RADICAL AS TREATMENT FOR NEURODEGENERATION” (Office of Technology Transfer, NIH, priority 2007, published 2010)
